Reference: US20060167229A1, “Biologically active peptide conjugates” (priority 2002, published 2006)
Entries after “also recorded” stand apart in the source; their conditions may differ. Marks after values point to notes of the source that are not given here. Ends that are not written are not given here.

Assays:
S180 sarcoma = assay: Growth of transplanted S180 sarcoma; type: in vivo, BALB/c mice; details: controls: IL-2, IFN-γ 3 × 10^5 IU/kg, cyclophosphamide 20 mg/kg; saline 1.29 ± 0.50
Protocol: (§1) Intraperitoneal injection, once per day. […] Treatment of all groups with testing substance lasted for 30 days or until the animal died unless otherwise specified.
Stock S180 sarcoma cells were incubated in DMEM/F12 medium supplemented with 10% fetal bovine serum, 37° C., 5% CO2 for 72 hrs, then washed 3-4 times with Hank's solution at room temperature. Adjust the cell concentration to 1-2×10^9 per litre with Hank's solution. […] The mice were killed by cervical vertebra dislocation. Vigorously growing and non-disrupted tumor masses were harvested and washed clean with sterile saline. The tissue was dispersed in saline to a homogenous cell suspension, in a ratio of 1 g tissue to 4 ml saline. The sarcoma bearing mice model was prepared with an injection of 0.2 ml cell suspension through the armpit. Administration of test substance treatment started as described in section Method 1.
2.2 The Tumor Growth Inhibition Index was Calculated According to the Following Formula: Tumor growth inhibition index=(mean tumor weight of control group−mean tumor weight of treatment group)÷mean tumor weight of control group 3.

L1210 leukemia = assay: Survival of mice with transplanted L1210 leukemia; type: in vivo, DBA/2 mice; details: controls: IL-2, IFN-γ 3 × 10^5 IU/kg, cyclophosphamide 20 mg/kg; saline 16.6 ± 5.6
Protocol: as §1
Stock L1210 cells were incubated in DMEM/F12 medium supplemented with 10% fetal bovine serum, 37° C./5% CO2 for 72 hrs, then washed 3-4 times with Hank's solution, and adjusted to […]. 0.1 ml of the cell suspension was implanted into the abdominal cavity of several healthy DBA mice for 6-8 days. The mice were then killed by cervical vertebra dislocation and their ascitic fluid collected aseptically. The cell concentration of the collected ascitic fluid was adjusted to 1×10^5 per ml with Hank's solution. 0.1 ml of the cell suspension was implanted into each of the testing animal and the survival data of the animals recorded. Treatment started in the testing animals as described in section Method 1. Mean survival day was obtained by the Kaplan-meier method in the Survival option of the SPSS software. If the animal survived longer than the experiment, the survival days was entered as the duration of the experiment. The survival index was calculated according to the following formula: Survival index=(mean survival days of treatment group−mean survival days of control group)÷mean survival days of control group 6. The Effect of Peptides on the Humoral Immunity of C57BL/6 Mice Bearing Transplanted B16 Melanoma and that on the Metastatic Potential of the Inoculated Melanoma Cells

[1] = test system: Masugi nephritis rat model; assay: Masugi nephritis rat model; details: for urine protein level: 24 h urine; for spleen index / Serum creatinine level: after three weeks of treatment; for spleen index: placebo 4.8 ± 1.1, normal 2.4 ± 0.1; for Serum creatinine level: placebo 265 ± 212, normal 80 ± 1; for renal pathological microscopic examination: peptides 50 μg/kg/day i.p. 3 weeks, 6 heaviest kidneys per group
mononuclear phagocyte = assay: Carbon particle clearance test, phagocytosis function; type: in vivo, BALB/c mice; design: key to X ± SD (phagocytotic index): α = cube root of K × (body weight ÷ liver+spleen weight); details: for X ± SD (phagocytotic index): healthy mice, saline 5.1 ± 0.6; for effect on the phagocytotic activity of mononuclear phagocyte (summary): statistically significant difference from saline in any of the dosage groups 0.5-500 μg/kg/day
Protocol: On the next day after the last test substance administration (day 16), the mice were injected with […] body weight India ink (5 times dilution with normal saline) from the tail vein.
One minute and five minutes after Indian ink injection, 20 μl blood was obtained from the eye canthus with a heparinized tubing. The blood was mixed with 2 ml 0.1% w/v Na2CO3 and then OD680 nm obtained. The outline clear index K was calculated by the following formula: K=(lgA1−lgA2)÷(t2−t1)
(§2) One day after the last test substance administration (day 16), the liver, spleen, and thymus gland were separated and blotted dry with filter paper and weighed. The phagocytosis index α was calculated as below: α=(^3√{square root over ( )}K)(W÷WLS)

anti-SRBC antibody = assay: Sheep Red Blood Cell (SRBC) hemolysis test, antibody formation; type: in vivo, BALB/c mice; details: for anti-SRBC antibody formation, X ± SD (Unit): healthy mice, SRBC day 12 (IFN-γ, IL-2 3×10^5 IU/kg/day), saline 32 ± 7
Protocol: Sheep red blood cells (SRBC) were prepared by collecting blood from cervical vein and put into a sterile flask with glass beads. The flask was shaken for 3 minutes and the blood then mixed with Alsever solution (glucose 2.05 g, NaCl 0.4 g, […] 0.8 g, adjust to 100 ml with distilled water) and stored at 4° C. Immediately before use, samples were centrifuged at 130 g, 5 minutes to collect the SRBC. The cells were washed two times by re-suspension and centrifugation in normal saline. Then the cell pellet was collected by centrifugation at 180 g for 10 minutes and re-suspended in saline to make the final working SRBC suspension, 2% (v/v).
Complement was prepared by adding 10 volumes of fresh Cavy serum into one volume centrifuge packed SRBC, and then gently shaking for 30 minutes at 4° C. The SRBC was removed by centrifugation at 200 g for 10 minutes. 10 volumes of normal saline were added to obtain the working complement solution.
The test substances were administered as described in section 1.1, plus intraperitoneal injection 0.2 ml SRBC per mouse on day 12. On the day after the last test substance administration (day 16), blood was collected from the eye canthus and left at room temperature for one hour for serum exudation. After centrifugation at 200 g for 10 minutes, the serum was diluted by 500 times with normal saline.
To 1 ml diluted mouse serum of each mouse, 0.5 ml SRBC suspension was added. Ice cold. Then 1 ml working complement solution was added and incubated at 37° C. water bath for 10 minutes. Reactions were terminated by ice cold. Samples were then centrifuged at 200 g for 10 minutes to obtain the supernatant.
To 1 ml of this supernatant, 3 ml Drabkin solution was added and left at room temperature for 10 minutes. OD540 nm was obtained.
Reference OD540 nm was obtained by mixing 0.25 ml SRBC suspension with Drabkin solution to 4 ml and placed at room temperature for 10 minutes before OD540 nm was taken.
Sample serum index=(OD540 nm of test sample÷reference OD540 nm)×500

NK cell = NK cell cytotoxicity activity test (spleen cells of treated mice against YAC-1 target cells, MTT); type: in vivo, BALB/c mice
Protocol: The above substances were all dissolved in 0.5 ml saline and injected intraperitoneal (i.p.) for 15 continuous days, once per day.
Ten mice per group. The day after the last test substance administration, the mice were sacrificed by cervical dislocation. The spleen was isolated aseptically and manually dispersed in cold D-Hank's solution using an injection needle. The dispersed cell suspension was further sieved through a 100 gauge 150 μm diameter stainless steel sieve. After centrifugation at 200 g for 10 minutes, the supernatant was discarded. The cell pellet was re-suspended in 10 volume of Tris-NH4Cl buffer and then kept standing still for 10 minutes at room temperature. The suspended cells were collected by centrifugation at 150 g for 10 minutes. The cells were washed 2-4 times with cold D-Hank's solution by re-suspending and collecting by centrifugation with condition as described above. The washed cells were then diluted to the desired cell densities by RPMI-1640 culture medium, containing 10% fetal bovine serum.
Mice spleen cells were prepared to 4×10^6/ml as described in section 1.1 above. Target cells YAC-1 were brought to log phase and adjusted to 1×10^5/ml. Using a 96 wells cell culture plate, […] were added to the control well containing only the spleen cells; […] and 100 μl culture medium were added to the control well containing only target cells; 100 μl mouse spleen cells and 100 μl target cells were added to the NK activity assay well. Three parallel sets of the above were prepared per mouse.
Samples were centrifuged at 150 g for 10 minutes to collect the cells. The supernatant was discarded and 50 μl/well MTT of 1 mg/ml was added. The reaction-mixture was then shaken for 2 minutes, and incubated at 37° C., 5% CO2 for 4 hours. The supernatant was discarded after centrifugation at 150 g for 10 minutes. […] 40 mM HCl-2-propanol was added and shaken for 3 minutes. An ELISA reader was used to obtain OD570 nm of each well referenced at 630 nm.

spleen = assay: Immunity organ weight test, spleen index; type: in vivo, BALB/c mice
Protocol: as §2
Spleen index (%)=(spleen weight/body weight)×100%

thymus gland = assay: Immunity organ weight test, thymus gland index; type: in vivo, BALB/c mice; details: for weight of thymus gland (thymus gland index), X ± SD (%): healthy mice, saline 0.12 ± 0.02; for effect on the weight of the thymus gland (summary): statistically significant difference from saline in any of the dosage groups 0.5-500 μg/kg/day
Protocol: as §2
Thymus gland index (%)=(thymus weight/body weight)×100%

[2] = Week 1, peptides 50 μg/kg/day, hydrocortisone 3.3 mg/kg/day i.p., placebo 22.9 ± 22, normal 1.7 ± 1.3
[3] = Week 2, peptides 50 μg/kg/day i.p., hydrocortisone dose halved after first week, placebo 17.2 ± 14.5, normal 2.3 ± 1.1
[4] = Week 3, peptides 50 μg/kg/day i.p., hydrocortisone dose halved after first week, placebo 20.2 ± 29.0, normal 0.4 ± 0.2
[5] = peptide 50 μg/kg/day i.p. 15 days (IFN-γ, IL-2 3×10^5 IU/kg/day)
[6] = peptide 0.5 μg/kg/day i.p. 15 days
[7] = statistically significant difference from saline in any of the dosage groups 0.5-500 μg/kg/day
[8] = peptide 0.5 μg/kg/day i.p. 15 days (IFN-γ, IL-2 3×10^5 IU/kg/day)
[9] = peptide 5 μg/kg/day i.p. 15 days (IFN-γ, IL-2 3×10^5 IU/kg/day)

Compound: O=P1(N(CCCl)CCCl)NCCCO1 (stereo not shown) [Cyclophosphamide, reference compound]
- Tumor weight (S180 sarcoma): 0.68 ± 0.32 g
- Survival days (L1210 leukemia): 24.0 ± 5.3 days

Compound: C[C@]12CCC(=O)C=C1CC[C@@H]1[C@@H]2[C@@H](O)C[C@@]2(C)[C@H]1CC[C@]2(O)C(=O)CO [hydrocortisone, Hydrocortisone, reference compound]
- urine protein level [1, 2]: 3.1 ± 2.0 mg
- urine protein level [1, 3]: 7.5 ± 7.7 mg
- urine protein level [1, 4]: 7.6 ± 7.1 mg
- spleen index ([1]; peptides 50 μg/kg/day i.p.): 4.5 ± 1.4 ×10^−3
- Serum creatinine level ([1]; peptides 50 μg/kg/day i.p.): 239 ± 107 µmol/L
- growth rate of the rats ([1]; peptides 50 μg/kg/day, hydrocortisone 3.3 mg/kg/day i.p.): slower growth rate than normal

Compound: Phe Gln Gln Met (FQQM; printed: Phe Gln Gln Met) [CMS030]
- X ± SD (phagocytotic index) (mononuclear phagocyte; [5]): 6.3 ± 0.5
- effect on the phagocytotic activity of mononuclear phagocyte (summary) (mononuclear phagocyte): enhance
- anti-SRBC antibody formation, X ± SD (Unit) (anti-SRBC antibody; [6]): 19 ± 7 Unit
- anti-SRBC antibody formation, X ± SD (Unit) (anti-SRBC antibody; peptide 5 μg/kg/day i.p. 15 days): 158 ± 37*^@^ Unit
- anti-SRBC antibody formation, X ± SD (Unit) (anti-SRBC antibody; peptide 50 μg/kg/day i.p. 15 days): 141 ± 33*^@^ Unit
- effect on the synthesis of anti-SRBC antibody upon the antigenic challenge (summary) (anti-SRBC antibody; [7]): enhance; also recorded: inhibit
- NK cell cytotoxic activity, X ± SD (%) (NK cell; healthy mice, peptide 500 μg/kg/day i.p. 15 days (IFN-γ, IL-2 3×10^5 IU/kg/day), saline 63 ± 9): 91 ± 5*^@^ %
- effect on the cytotoxic activity of NK cells (summary) (NK cell; [7]): increase
- weight of spleen (spleen index), X ± SD (%) (spleen; Table 30, healthy mice, peptide 5 μg/kg/day i.p. 15 days, saline 0.53 ± 0.05): 0.64 ± 0.09 %
- effect on the weight of the spleen (summary) (spleen; [7]): increase
- urine protein level [1, 2]: 5.4 ± 3.4 mg
- urine protein level [1, 3]: 9.5 ± 16.2 mg
- urine protein level [1, 4]: 2.4 ± 1.5 mg
- spleen index ([1]; peptides 50 μg/kg/day i.p.): 3.0 ± 0.5 ×10^−3
- Serum creatinine level ([1]; peptides 50 μg/kg/day i.p.): 93 ± 1 µmol/L
- renal pathological microscopic examination [1]: all pathological parameters of all rats were normal
- weight of thymus gland (thymus gland index), X ± SD (%) (thymus gland; [8]): 0.24 ± 0.05*^@^ %
- weight of thymus gland (thymus gland index), X ± SD (%) (thymus gland; [9]): 0.23 ± 0.07*^ %
- weight of thymus gland (thymus gland index), X ± SD (%) (thymus gland; [5]): 0.25 ± 0.04*^@^ %
- weight of thymus gland (thymus gland index), X ± SD (%) (thymus gland; peptide 500 μg/kg/day i.p. 15 days (IFN-γ, IL-2 3×10^5 IU/kg/day)): 0.30 ± 0.03*^@^ %
- effect on the weight of the thymus gland (summary) (thymus gland): increase

Compound: VGMGQKDSY
- X ± SD (phagocytotic index) (mononuclear phagocyte; [9]): 6.7 ± 1.2
- effect on the phagocytotic activity of mononuclear phagocyte (summary) (mononuclear phagocyte): enhance
- anti-SRBC antibody formation, X ± SD (Unit) (anti-SRBC antibody; [6]): 3 ± 1 Unit
- anti-SRBC antibody formation, X ± SD (Unit) (anti-SRBC antibody; peptide 500 μg/kg/day i.p. 15 days): 66 ± 16 Unit
- urine protein level [1, 2]: 7.0 ± 3.7 mg
- urine protein level [1, 3]: 5.5 ± 7.9 mg
- urine protein level [1, 4]: 3.3 ± 3.4 mg
- spleen index ([1]; peptides 50 μg/kg/day i.p.): 3.3 ± 0.8 ×10^−3
- Serum creatinine level ([1]; peptides 50 μg/kg/day i.p.): 67 ± 1 µmol/L
- renal pathological microscopic examination [1]: all pathological parameters of all rats were normal
- weight of thymus gland (thymus gland index), X ± SD (%) (thymus gland; [8]): 0.20 ± 0.03 %
- weight of thymus gland (thymus gland index), X ± SD (%) (thymus gland; [9]): 0.24 ± 0.04*^@^ %
- weight of thymus gland (thymus gland index), X ± SD (%) (thymus gland; [5]): 0.23 ± 0.02*^@^ %
- effect on the weight of the thymus gland (summary) (thymus gland): increase
